EC50 data for 39 molecules are collected here from patent US8618151B2, “Inhibitors of HCV NS5A” (Presidio Pharmaceuticals, Inc., priority 2008, dated 2013).

Structures are written as SMILES.

This test deals with HCV genotype 1b replicon. Nature of the test: HCV replicon assay (1b_Huh-Luc/Neo-ET cell line, luciferase readout). Particulars: Hepatitis C virus, Huh-7, 72 h, read-out: Inhibition of HCV genotype 1b. Format: cell-based. Summed up:
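Luciferase activity (Bright-Glo) after 72 h compound exposure, in triplicate, measured replicon levels in Huh 7-derived 1b_Huh-Luc/Neo-ET cells. EC50 was fitted from percent-of-control values and determined in repeat runs.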
(In general: Replicon systems follow genome replication, usually without infectious particles.)
For the molecule `COC(=O)N[C@@H](C(=O)N1CCC[C@H]1c1ncc(-c2ccc(-c3nc4cc(-c5cnc([C@@H]6CCCN6C(=O)[C@H](NC(=O)OC)c6ccccc6)[nH]5)ccc4o3)cc2)[nH]1)c1ccccc1` [compound 237], the EC50 was less than 1 nM.

As for `COC(=O)N[C@H](C(=O)N1CCC[C@H]1c1nc(-c2ccc3cc(-c4ccc(-c5cnc([C@@H]6CCCN6C(=O)[C@@H](NC(=O)OC)C(C)C)[nH]5)cc4C)ccc3c2)c[nH]1)C(C)C` [compound 85], the EC50 is less than 1 nM. Then `COC(=O)N[C@H](C(=O)N1CCC[C@H]1c1nc2ccc(-c3ccc4cc(-c5ccc6nc([C@@H]7CCCN7C(=O)[C@@H](NC(=O)OC)C(C)C)[nH]c6c5)ccc4c3)cc2[nH]1)C(C)C` [compound 276], with less than 1 nM; and `COC(=O)N[C@H](C(=O)N1CCC[C@H]1c1nc(-c2cnc3cc(-c4ccc(-c5cnc([C@@H]6CCCN6C(=O)[C@@H](NC(=O)OC)C6CCOCC6)[nH]5)cc4)ccc3c2)c[nH]1)C(C)C` [compound 49], with less than 1 nM. To `COC(=O)N[C@H](C(=O)N1CCC[C@H]1c1nc(-c2ccc3c(c2)CCN(c2c(F)cc(-c4cnc([C@@H]5CCCN5C(=O)[C@@H](NC(=O)OC)C5CC5)[nH]4)cc2F)C3)c[nH]1)C1CC1` [compound 271] belongs less than 1 nM. As for `COC(=O)N[C@@H](C(=O)N1CCC[C@H]1c1ncc(-c2ccc(-c3nc4ccc(-c5cnc([C@@H]6CCCN6C(=O)[C@H](NC(=O)OC)c6ccccc6)[nH]5)cc4o3)cc2)[nH]1)c1ccccc1` [compound 235], the EC50 was less than 1 nM. To `COC(=O)N[C@H](C(=O)N1CCC[C@H]1c1nc2ccc3cc(-c4ccc5cc(-c6cnc([C@@H]7CCCN7C(=O)[C@H](NC(=O)OC)c7ccccc7)[nH]6)ccc5n4)ccc3c2[nH]1)C(C)C` [compound 298] belongs less than 1 nM; to `COC(=O)N[C@H](C(=O)N1CCC[C@H]1c1ncc(-c2cnc3cc(-c4ccc5nc([C@@H]6CCCN6C(=O)[C@@H](NC(=O)OC)C6CCOCC6)[nH]c5c4)ccc3c2)[nH]1)C(C)C` [compound 192], less than 1 nM; to `COC(=O)N[C@H](C(=O)N1CCC[C@H]1c1nc(-c2ccc3nc(N4CCC(c5cnc([C@@H]6CCCN6C(=O)[C@@H](NC(=O)OC)C(C)C)[nH]5)CC4)ccc3c2)c[nH]1)C(C)C` [compound 275], less than 1 nM. To `COC(=O)N[C@H](C(=O)N1CCC[C@H]1c1nc(-c2ccc3[nH]c(-c4ccc(-c5cnc([C@@H]6CCCN6C(=O)[C@@H](NC(=O)OC)C(C)C)[nH]5)cc4)cc(=O)c3c2)c[nH]1)C(C)C` [compound 76] belongs less than 1 nM; to `COC(=O)N[C@H](C(=O)N1CCC[C@H]1c1nc2c([nH]1)-c1ccc(-c3cc4ccc(-c5cnc([C@@H]6CCCN6C(=O)[C@@H](NC(=O)OC)C6CCOCC6)[nH]5)cc4cn3)cc1CC2)C(C)C` [compound 293], less than 1 nM. Then `COC(=O)N[C@H](C(=O)N1CCC[C@H]1c1nc2ccc(-c3ccc4cc(-c5cnc([C@@H]6CCCN6C(=O)[C@H](NC(=O)OC)c6ccccc6)[nH]5)ccc4n3)cc2[nH]1)C(C)C` [compound 196], with less than 1 nM. `CNC(=O)N[C@@H](C(=O)N1CCC[C@H]1c1ncc(-c2ccc3cc(-c4ccc5nc([C@@H]6CCCN6C(=O)[C@@H](NC(=O)OC)C(C)C)[nH]c5c4)ccc3c2)[nH]1)c1ccccc1` [compound 186]: the EC50 was less than 1 nM.

Consider `COC(=O)N[C@H](C(=O)N1CCC[C@H]1c1nc(-c2ccc3cc(-c4ccc(-c5cnc([C@@H]6CCCN6C(=O)[C@H](NC(=O)OC)c6ccc(F)cc6)[nH]5)cc4)ccc3c2)c[nH]1)C1CCOCC1` [compound 111], for which the EC50 is less than 1 nM.

For the molecule `COC(=O)N[C@H](C(=O)N1CCC[C@H]1c1ncc(-c2ccc3cc(-c4ccc(-c5cnc([C@@H]6CCCN6C(=O)[C@H](NC(=O)OC6CCOCC6)c6ccccc6)[nH]5)cc4)ncc3c2)[nH]1)C1CCOCC1` [compound 117], the EC50 is less than 1 nM. On to `COC(=O)N[C@H](C(=O)N1CCC[C@H]1c1ncc(-c2ccc(-c3ccc4cc(-c5cnc([C@@H]6CCCN6C(=O)[C@H](NC(=O)OC(C)(C)C)c6ccccc6)[nH]5)ccc4n3)c(F)c2)[nH]1)C(C)C` [compound 122], for which the EC50 was less than 1 nM. In the case of `COC(=O)N[C@H](C(=O)N1CCC[C@H]1c1nc2ccc(-c3ccc4cc(-c5cnc([C@@H]6CCCN6C(=O)[C@H](NC(=O)N6CC[C@H](O)C6)c6ccccc6)[nH]5)ccc4c3)cc2[nH]1)C(C)C` [compound 183], the EC50 is less than 1 nM. `COC(=O)N[C@H](C(=O)N1CCC[C@H]1c1ncc(-c2ccc(-c3ccc4cc(-c5c[nH]c([C@@H]6CCCN6C(=O)[C@@H](NC(=O)OC)C6CCOCC6)n5)ccc4c3)c(F)c2)[nH]1)C(C)C` [compound 68]: the EC50 was less than 1 nM. For the molecule `COC(=O)N[C@H](C(=O)N1CCC[C@H]1c1ncc(-c2ccc(-c3nc4cc(-c5cnc([C@@H]6CCCN6C(=O)[C@@H](NC(=O)OC)C(C)C)[nH]5)ccc4n3C)cc2)[nH]1)C(C)C` [compound 232], the EC50 was less than 1 nM.

As to `COC(=O)N[C@H](C(=O)N1CCC[C@H]1c1ncc(-c2ccc(-c3ccc4cc(-c5c[nH]c([C@@H]6CCCN6C(=O)[C@H](NC(=O)OC)c6ccccc6)n5)ccc4c3)cc2)[nH]1)C(C)C` [compound 7], the EC50 was less than 1 nM.

On to `COC(=O)N[C@H](C(=O)N1CCC[C@H]1c1ncc(-c2ccc(-c3ccc4cc(-c5cnc([C@@H]6CCCN6C(=O)[C@H](NC(=O)OC)c6ccccc6)[nH]5)ccc4n3)c(F)c2)[nH]1)C1CCOCC1` [compound 129], for which the EC50 was less than 1 nM.

Regarding `COC(=O)N[C@H](C(=O)N1CCC[C@H]1c1nc2ccc(-c3ccc4cc(-c5ccc6nc([C@@H]7CCCN7C(=O)[C@@H](NC(=O)OC)C(C)C)[nH]c6c5)ncc4c3)cc2[nH]1)C(C)C` [compound 281], the EC50 was less than 1 nM. To `COC(=O)N[C@@H](C(=O)N1CCC[C@H]1c1nc(-c2ccc3nc(C4CCC(c5cnc([C@@H]6CCCN6C(=O)[C@H](NC(=O)OC)c6ccccc6)[nH]5)CC4)ccc3c2)c[nH]1)c1ccccc1` (stereo partly drawn) [compound 286] belongs less than 1 nM; to `COC(=O)N[C@H](C(=O)N1CCC[C@H]1c1ncc(-c2ccc(-c3nc4ccc(-c5cnc([C@@H]6CCCN6C(=O)[C@@H](NC(=O)OC)[C@@H](C)OC)[nH]5)cc4o3)cc2)[nH]1)C(C)C` [compound 253], less than 1 nM; to `COC(=O)N[C@H](C(=O)N1CCC[C@H]1c1nc(-c2ccc3cc(-c4ccc(-c5cnc([C@@H]6CCCN6C(=O)[C@@H](NC(=O)OC)C(C)C)[nH]5)cc4)ccc3n2)c[nH]1)C(C)C` [compound 102], less than 1 nM. To `COC(=O)N[C@H](C(=O)N1CCC[C@H]1c1ncc(-c2ccc(-c3ccc4cc(-c5c[nH]c([C@@H]6CCCN6C(=O)[C@H](NC(=O)OC)c6ccccc6)n5)cnc4c3)cc2)[nH]1)C(C)C` [compound 45] belongs less than 1 nM; to `COC(=O)N[C@H](C(=O)N1CCC[C@H]1c1nc2c([nH]1)-c1ccc(-c3cc4ccc(-c5cnc([C@@H]6CCCN6C(=O)[C@H](NC(=O)OC6CCOCC6)c6ccccc6)[nH]5)cc4cn3)cc1CC2)C(C)C` [compound 295], less than 1 nM. Turning to `COC(=O)N[C@H](C(=O)N1CCC[C@H]1c1ncc(-c2ccc(-c3ccc4cc(-c5c[nH]c([C@@H]6CCCN6C(=O)[C@H](NC(=O)OC6CCOCC6)c6ccccc6)n5)ccc4n3)cc2)[nH]1)C1CCOCC1` [compound 92], the EC50 is less than 1 nM. To `COC(=O)N[C@H](C(=O)N1CCC[C@H]1c1ncc(-c2ccc(-c3nc4cc(-c5cnc([C@@H]6CCCN6C(=O)[C@@H](NC(=O)OC)C(C)C)[nH]5)ccc4s3)cc2)[nH]1)C(C)C` [compound 240] belongs less than 1 nM; to `COC(=O)N[C@H](C(=O)N1CCC[C@H]1c1nc(-c2ccc3nc(-c4ccc(-c5cnc([C@@H]6CCCN6C(=O)[C@@H](NC(=O)OC)C(C)C)[nH]5)cc4)ncc3c2)c[nH]1)C(C)C` [compound 17], less than 1 nM. To `COC(=O)N[C@H](C(=O)N1CCC[C@H]1c1ncc(-c2ccc(-c3ccc4cc(-c5c[nH]c([C@@H]6CCCN6C(=O)[C@@H](NC(=O)OC)C6CCOCC6)n5)ccc4c3)nc2)[nH]1)C(C)C` [compound 52] belongs less than 1 nM. Take `COC(=O)N[C@H](C(=O)N1CCC[C@H]1c1ncc(-c2ccc(-c3nc4ccc(-c5cnc([C@@H]6CCCN6C(=O)OCc6ccccc6)[nH]5)cc4s3)cc2)[nH]1)C(C)C` [compound 246]: the EC50 is less than 1 nM. For `COC(=O)N[C@H](C(=O)N1CCC[C@H]1c1ncc(-c2ccc3cc(-c4ccc5nc([C@@H]6CCCN6C(=O)[C@H](NC(=O)OC)c6ccccc6)[nH]c5c4)ccc3c2)[nH]1)C(C)C` [compound 181], the EC50 is less than 1 nM. As to `COC(=O)N[C@H](C(=O)N1CCC[C@H]1c1ncc(-c2ccc(-c3ccc4cc(-c5c[nH]c([C@@H]6CCCN6C(=O)[C@@H](NC(=O)OC)C6CCOCC6)n5)ccc4n3)cc2)[nH]1)C(C)C` [compound 39], the EC50 was less than 1 nM.

In the case of `COC(=O)N[C@H](C(=O)N1CCC[C@H]1c1ncc(-c2ccc(-c3ccc4cc(-c5c[nH]c([C@@H]6CCCN6C(=O)[C@H](NC(=O)OC(C)(C)C)c6ccccc6)n5)cnc4c3)nc2)[nH]1)C(C)C` [compound 82], the EC50 was less than 1 nM.

On to `COC(=O)NC(C(=O)N1CCC[C@H]1c1nc(-c2ccc3cc(-c4ccc(-c5cnc([C@@H]6CCCN6C(=O)[C@H](NC(=O)NC(C)(C)C)c6ccccc6)[nH]5)cc4)ccc3c2)c[nH]1)C(C)C` (stereo partly drawn) [compound 25], for which the EC50 is less than 1 nM. Turning to `COC(=O)N[C@H](C(=O)N1CCC[C@H]1c1nc2ccc(-c3ccc4cc(-c5cnc([C@@H]6CCCN6C(=O)[C@H](NC(=O)OC)c6ccccc6)[nH]5)ccc4c3)nc2[nH]1)C(C)C` [compound 200], the EC50 is less than 1 nM.

`COC(=O)N[C@@H](C)C(=O)N1CCC[C@H]1c1nc(-c2ccc3c(c2)CCN(c2c(F)cc(-c4cnc([C@@H]5CCCN5C(=O)[C@H](C)NC(=O)OC)[nH]4)cc2F)C3)c[nH]1` [compound 272]: the EC50 is less than 1 nM. To `COC(=O)N[C@H](C(=O)N1CCC[C@H]1c1ncc(-c2ccc(-c3nc4ccc(-c5cnc([C@@H]6CCCN6C(=O)[C@H](NC(=O)OC)c6ccccc6)[nH]5)cc4o3)cc2)[nH]1)C(C)C` [compound 249] belongs less than 1 nM.
